Data reported in the supplement of paper PMC10307832.

What was measured:
Assay in all cases: relative viability (nuclei count vs DMSO), 5 days (fraction); higher = more cells survive
Apatinib + AZD7762 = compound: N#CC1(c2ccc(NC(=O)c3cccnc3NCc3ccncc3)cc2)CCCC1 [Apatinib] + NC(=O)Nc1cc(-c2cccc(F)c2)sc1C(=O)N[C@H]1CCCNC1 [AZD7762] (partner 0.2 µM)
Outline: (§1)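 Lung cancer cell lines in 1536-well plates got either a single drug or a fixed anchor-drug dose together with five library-drug doses (not always all listed) in √10 steps, by pin tool, on the day after seeding. Nuclei were counted after 5 days, and relative viability is the treated-to-vehicle ratio of nuclei counts. Values are medians of duplicate plates.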

Metformin + Pictilisib = compound: CN(C)C(=N)NC(=N)N [Metformin] + CS(=O)(=O)N1CCN(Cc2cc3nc(-c4cccc5[nH]ncc45)nc(N4CCOCC4)c3s2)CC1 [Pictilisib] (partner 1 µM)
Outline: as §1

Metformin + Decitabine = compound: CN(C)C(=N)NC(=N)N [Metformin] + Nc1ncn([C@H]2C[C@H](O)[C@@H](CO)O2)c(=O)n1 [Decitabine] (partner 2 µM)
Outline: as §1

Apatinib + Trametinib = compound: N#CC1(c2ccc(NC(=O)c3cccnc3NCc3ccncc3)cc2)CCCC1 [Apatinib] + CC(=O)Nc1cccc(-n2c(=O)n(C3CC3)c(=O)c3c(Nc4ccc(I)cc4F)n(C)c(=O)c(C)c32)c1 [Trametinib] (partner 0.02 µM)
Outline: as §1

Cell Line	relative viability (Apatinib + AZD7762; first compound 0.08 µM)	relative viability (Apatinib + AZD7762; first compound 0.253 µM)	relative viability (Apatinib + AZD7762; first compound 0.8 µM)	relative viability (Apatinib + AZD7762; first compound 2.53 µM)	relative viability (Apatinib + AZD7762; first compound 8 µM)	relative viability (Metformin + Pictilisib; first compound 10 µM)	relative viability (Metformin + Pictilisib; first compound 31.62 µM)	relative viability (Metformin + Pictilisib; first compound 100 µM)	relative viability (Metformin + Pictilisib; first compound 316.23 µM)	relative viability (Metformin + Pictilisib; first compound 1000 µM)	relative viability (Metformin + Decitabine; first compound 31.62 µM)	relative viability (Metformin + Decitabine; first compound 100 µM)	relative viability (Metformin + Decitabine; first compound 316.23 µM)	relative viability (Metformin + Decitabine; first compound 1000 µM)	relative viability (Apatinib + Trametinib; first compound 0.08 µM)	relative viability (Apatinib + Trametinib; first compound 0.253 µM)	relative viability (Apatinib + Trametinib; first compound 0.8 µM)	relative viability (Apatinib + Trametinib; first compound 2.53 µM)	relative viability (Apatinib + Trametinib; first compound 8 µM)	relative viability (Metformin + Decitabine; first compound 10 µM)
HCC-78	0.553	0.766	0.666	0.539	0.638	0.291	0.257	0.201	0.159	0.244	0.605	0.768	0.779	0.658	0.717	0.683	0.781	0.651	0.61	
LCLC-97TM1	0.233	0.263	0.204	0.19	0.311	0.257	0.196	0.255	0.234	0.223	0.203	0.202	0.21	0.29	0.221	0.221	0.179	0.231	0.182	
NCI-H441	1	1.16	1.05	1.08	1.06	0.527		0.499	0.394	0.589	0.236	0.262	0.217	0.262	0.52	0.46	0.434	0.442	0.503	
NCI-H1651	0.325	0.514	0.44	0.322	0.324	0.762	0.887	0.674	0.883	0.876	0.687	0.572	0.476	0.755	0.84	0.874	0.821	0.75	0.684	0.485
NCI-H1944	0.498	0.564	0.477	0.316	0.285	0.324	0.351	0.371	0.293	0.338	0.381	0.437	0.401	0.453	0.395	0.429	0.318	0.403	0.29	0.361
